Measured values taken from US20210045385A1, “PYRIDAZINONE-SUBSTITUTED KETOXIMES AS HERBICIDES” (FMC Corporation, priority 2018, published 2021).

How the values were obtained:
Format in all cases: in vivo
[1] = test system: Italian ryegrass (Lolium multiflorum); assay: Test A preemergence, visual plant response rating; details: for Ryegrass, Italian plant response rating: 125 g ai/ha, preemergence, 0 to 100 scale, 0 no effect, 100 complete control; for Ryegrass, Italian plant response rating (0 to 100 scale): 500 g ai/ha Preemergence, approx. 10 days
How it was run: (§1)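 Greenhouse pot test in loam–sand soil mix: compound in a surfactant-containing non-phytotoxic solvent applied preemergence (directed soil spray) or postemergence (one- to two-leaf plants, 2–10 cm). Injury scored visually after ~10 days, 0–100.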

[2] = test system: barnyardgrass (Echinochloa crus-galli); assay: Test A preemergence, visual plant response rating; details: for Barnyardgrass plant response rating: 125 g ai/ha, preemergence, 0 to 100 scale, 0 no effect, 100 complete control; for Barnyardgrass plant response rating (0 to 100 scale): 500 g ai/ha Preemergence, approx. 10 days
How it was run: as §1

[3] = test system: foxtail, giant (giant foxtail, Setaria faberii); assay: Test A preemergence, visual plant response rating; details: for Foxtail, Giant plant response rating: 125 g ai/ha, preemergence, 0 to 100 scale, 0 no effect, 100 complete control; for Foxtail, Giant plant response rating (0 to 100 scale): 500 g ai/ha Preemergence, approx. 10 days
How it was run: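 Ratings 0–100 (100 = complete control), visual, vs untreated controls at ~10 days. Application pre- or postemergence; solvent mixture with surfactant; loam/sand medium.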

kochia (Kochia scoparia) [4] = assay: Test A preemergence, visual plant response rating; details: for Kochia plant response rating: 125 g ai/ha, preemergence, 0 to 100 scale, 0 no effect, 100 complete control; for Kochia plant response rating (0 to 100 scale): 500 g ai/ha Preemergence, approx. 10 days
How it was run: as §1

[5] = test system: pigweed (Amaranthus retroflexus); assay: Test A preemergence, visual plant response rating; details: for Pigweed plant response rating: 125 g ai/ha, preemergence, 0 to 100 scale, 0 no effect, 100 complete control; for Pigweed plant response rating (0 to 100 scale): 500 g ai/ha Preemergence, approx. 10 days
How it was run: as §1

[6] = test system: ragweed (common ragweed, Ambrosia elatior); assay: Test A preemergence, visual plant response rating; details: for Ragweed plant response rating: 125 g ai/ha, preemergence, 0 to 100 scale, 0 no effect, 100 complete control; for Ragweed plant response rating (0 to 100 scale): 500 g ai/ha Preemergence, approx. 10 days
How it was run: as §1

[7] = test system: Italian ryegrass (Lolium multiflorum); assay: Test A postemergence, visual plant response rating; details: for Ryegrass, Italian plant response rating (0 to 100 scale): 500 g ai/ha, postemergence, 0 is no effect, 100 is complete control; for Ryegrass, Italian plant response rating: Postemergence, 125 g ai/ha, 0 to 100 scale (0 no effect, 100 complete control)
How it was run: as §1

[8] = test system: barnyardgrass (Echinochloa crus-galli); assay: Test A postemergence, visual plant response rating; details: for Barnyardgrass plant response rating (0 to 100 scale): 500 g ai/ha, postemergence, 0 is no effect, 100 is complete control; for Barnyardgrass plant response rating: Postemergence, 125 g ai/ha, 0 to 100 scale (0 no effect, 100 complete control)
How it was run: as §1

[9] = test system: blackgrass (Alopecurus myosuroides); assay: Test A postemergence, visual plant response rating; details: for Blackgrass plant response rating (0 to 100 scale): 500 g ai/ha, postemergence, 0 is no effect, 100 is complete control; for Blackgrass plant response rating: Postemergence, 125 g ai/ha, 0 to 100 scale (0 no effect, 100 complete control)
How it was run: as §1

corn (Zea mays) = assay: Test A postemergence, visual plant response rating; details: for Corn plant response rating (0 to 100 scale): 500 g ai/ha, postemergence, 0 is no effect, 100 is complete control; for Corn plant response rating: Postemergence, 125 g ai/ha, 0 to 100 scale (0 no effect, 100 complete control)
How it was run: as §1

[10] = test system: foxtail, giant (giant foxtail, Setaria faberii); assay: Test A postemergence, visual plant response rating; details: for Foxtail, Giant plant response rating (0 to 100 scale): 500 g ai/ha, postemergence, 0 is no effect, 100 is complete control; for Foxtail, Giant plant response rating: Postemergence, 125 g ai/ha, 0 to 100 scale (0 no effect, 100 complete control)
How it was run: as §1

[11] = test system: galium (catchweed bedstraw, Galium aparine); assay: Test A postemergence, visual plant response rating; details: for Galium plant response rating (0 to 100 scale): 500 g ai/ha, postemergence, 0 is no effect, 100 is complete control; for Galium plant response rating: Postemergence, 125 g ai/ha, 0 to 100 scale (0 no effect, 100 complete control)
How it was run: as §1

kochia (Kochia scoparia) [12] = assay: Test A postemergence, visual plant response rating; details: for Kochia plant response rating (0 to 100 scale): 500 g ai/ha, postemergence, 0 is no effect, 100 is complete control; for Kochia plant response rating: Postemergence, 125 g ai/ha, 0 to 100 scale (0 no effect, 100 complete control)
How it was run: as §1

[13] = test system: pigweed (Amaranthus retroflexus); assay: Test A postemergence, visual plant response rating; details: for Pigweed plant response rating (0 to 100 scale): 500 g ai/ha, postemergence, 0 is no effect, 100 is complete control; for Pigweed plant response rating: Postemergence, 125 g ai/ha, 0 to 100 scale (0 no effect, 100 complete control)
How it was run: as §1

[14] = test system: ragweed (common ragweed, Ambrosia elatior); assay: Test A postemergence, visual plant response rating; details: for Ragweed plant response rating (0 to 100 scale): 500 g ai/ha, postemergence, 0 is no effect, 100 is complete control; for Ragweed plant response rating: Postemergence, 125 g ai/ha, 0 to 100 scale (0 no effect, 100 complete control)
How it was run: as §1

[15] = test system: wheat (Triticum aestivum); assay: Test A postemergence, visual plant response rating; details: for Wheat plant response rating (0 to 100 scale): 500 g ai/ha, postemergence, 0 is no effect, 100 is complete control; for Wheat plant response rating: Postemergence, 125 g ai/ha, 0 to 100 scale (0 no effect, 100 complete control)
How it was run: as §1

[16] = test system: barnyardgrass (Echinochloa crus-galli); assay: Test B flooded paddy test, visual plant response rating; details: 250 g ai/ha, Flood, applied to paddy water, 2-leaf stage, evaluated after 13 to 15 days
How it was run: (§2)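 Flooded-pot treatment: water 3 cm over the soil, chemical delivered into that water, depth unchanged for the duration. Assessed by eye versus controls following 13–15 greenhouse days; plants were at 2 leaves when dosed.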

[17] = test system: ducksalad (Heteranhera limosa); assay: as above; details: 250 g ai/ha, Flood, applied to paddy water, 2-leaf stage, evaluated after 13 to 15 days
How it was run: as §2

rice (Oryza sativa) = assay: as above; details: 250 g ai/ha, Flood, applied to paddy water, 2-leaf stage, evaluated after 13 to 15 days
How it was run: as §2

[18] = test system: sedge, umbrella (small-flower umbrella sedge, Cyperus difformis); assay: as above; details: 250 g ai/ha, Flood, applied to paddy water, 2-leaf stage, evaluated after 13 to 15 days
How it was run: as §2

CO/N=C(\c1ccsc1C)c1c(O)c(C)nn(C)c1=O [Compound 43]
Ryegrass, Italian plant response rating [1]: 0
Ryegrass, Italian plant response rating (0 to 100 scale) [1]: 0
Barnyardgrass plant response rating [2]: 0
Barnyardgrass plant response rating (0 to 100 scale) [2]: 0
Foxtail, Giant plant response rating [3]: 0
Foxtail, Giant plant response rating (0 to 100 scale) [3]: 0
Kochia plant response rating (kochia (Kochia scoparia) [4]): 0
Kochia plant response rating (0 to 100 scale) (kochia (Kochia scoparia) [4]): 0
Pigweed plant response rating [5]: 0
Pigweed plant response rating (0 to 100 scale) [5]: 30
Ragweed plant response rating [6]: 0
Ragweed plant response rating (0 to 100 scale) [6]: 20
Ryegrass, Italian plant response rating (0 to 100 scale) [7]: 30
Ryegrass, Italian plant response rating [7]: 0
Barnyardgrass plant response rating (0 to 100 scale) [8]: 0
Barnyardgrass plant response rating [8]: 0
Blackgrass plant response rating (0 to 100 scale) [9]: 20
Blackgrass plant response rating [9]: 0
Corn plant response rating (0 to 100 scale) (corn (Zea mays)): 0
Corn plant response rating (corn (Zea mays)): 0
Foxtail, Giant plant response rating (0 to 100 scale) [10]: 0
Foxtail, Giant plant response rating [10]: 0
Galium plant response rating (0 to 100 scale) [11]: 50
Galium plant response rating [11]: 20
Kochia plant response rating (0 to 100 scale) (kochia (Kochia scoparia) [12]): 20
Kochia plant response rating (kochia (Kochia scoparia) [12]): 0
Pigweed plant response rating (0 to 100 scale) [13]: 60
Pigweed plant response rating [13]: 20
Ragweed plant response rating (0 to 100 scale) [14]: 30
Ragweed plant response rating [14]: 20
Wheat plant response rating (0 to 100 scale) [15]: 0
Wheat plant response rating [15]: 0
Plant response rating, Barnyardgrass (0 to 100 scale, 0 is no effect, 100 is complete control) [16]: 0
Plant response rating, Ducksalad (0 to 100 scale, 0 is no effect, 100 is complete control) [17]: 0
Plant response rating, Rice (0 to 100 scale, 0 is no effect, 100 is complete control) (rice (Oryza sativa)): 0
Plant response rating, Sedge, Umbrella (0 to 100 scale, 0 is no effect, 100 is complete control) [18]: 0

C#CCON=C(c1c(O)c(C)nn(C)c1=O)c1cc(Br)cc2ccccc12 [Compound 116]
Ryegrass, Italian plant response rating [1]: 100
Ryegrass, Italian plant response rating (0 to 100 scale) [1]: 100
Barnyardgrass plant response rating [2]: 100
Barnyardgrass plant response rating (0 to 100 scale) [2]: 100
Foxtail, Giant plant response rating [3]: 90
Foxtail, Giant plant response rating (0 to 100 scale) [3]: 100
Kochia plant response rating (kochia (Kochia scoparia) [4]): 10
Kochia plant response rating (0 to 100 scale) (kochia (Kochia scoparia) [4]): 100
Pigweed plant response rating [5]: 100
Pigweed plant response rating (0 to 100 scale) [5]: 100
Ragweed plant response rating [6]: 90
Ragweed plant response rating (0 to 100 scale) [6]: 90
Ryegrass, Italian plant response rating (0 to 100 scale) [7]: 100
Ryegrass, Italian plant response rating [7]: 90
Barnyardgrass plant response rating (0 to 100 scale) [8]: 90
Barnyardgrass plant response rating [8]: 90
Blackgrass plant response rating (0 to 100 scale) [9]: 100
Blackgrass plant response rating [9]: 100
Corn plant response rating (0 to 100 scale) (corn (Zea mays)): 80
Corn plant response rating (corn (Zea mays)): 30
Foxtail, Giant plant response rating (0 to 100 scale) [10]: 90
Foxtail, Giant plant response rating [10]: 90
Galium plant response rating (0 to 100 scale) [11]: 100
Galium plant response rating [11]: 100
Kochia plant response rating (0 to 100 scale) (kochia (Kochia scoparia) [12]): 80
Kochia plant response rating (kochia (Kochia scoparia) [12]): 60
Pigweed plant response rating (0 to 100 scale) [13]: 100
Pigweed plant response rating [13]: 90
Ragweed plant response rating (0 to 100 scale) [14]: 100
Ragweed plant response rating [14]: 100
Wheat plant response rating (0 to 100 scale) [15]: 60
Wheat plant response rating [15]: 50
Plant response rating, Barnyardgrass (0 to 100 scale, 0 is no effect, 100 is complete control) [16]: 55
Plant response rating, Ducksalad (0 to 100 scale, 0 is no effect, 100 is complete control) [17]: 60
Plant response rating, Rice (0 to 100 scale, 0 is no effect, 100 is complete control) (rice (Oryza sativa)): 5
Plant response rating, Sedge, Umbrella (0 to 100 scale, 0 is no effect, 100 is complete control) [18]: 30

CON=C(c1c(O)c(C)nn(C)c1=O)c1cccc2cc(Br)ccc12 [Compound 96]
Ryegrass, Italian plant response rating [1]: 30
Ryegrass, Italian plant response rating (0 to 100 scale) [1]: 100
Barnyardgrass plant response rating [2]: 60
Barnyardgrass plant response rating (0 to 100 scale) [2]: 80
Foxtail, Giant plant response rating [3]: 70
Foxtail, Giant plant response rating (0 to 100 scale) [3]: 100
Kochia plant response rating (kochia (Kochia scoparia) [4]): 20
Kochia plant response rating (0 to 100 scale) (kochia (Kochia scoparia) [4]): 100
Pigweed plant response rating [5]: 80
Pigweed plant response rating (0 to 100 scale) [5]: 100
Ragweed plant response rating [6]: 90
Ragweed plant response rating (0 to 100 scale) [6]: 100
Ryegrass, Italian plant response rating (0 to 100 scale) [7]: 80
Ryegrass, Italian plant response rating [7]: 80
Barnyardgrass plant response rating (0 to 100 scale) [8]: 30
Barnyardgrass plant response rating [8]: 20
Blackgrass plant response rating (0 to 100 scale) [9]: 100
Blackgrass plant response rating [9]: 90
Corn plant response rating (0 to 100 scale) (corn (Zea mays)): 30
Corn plant response rating (corn (Zea mays)): 10
Foxtail, Giant plant response rating (0 to 100 scale) [10]: 70
Foxtail, Giant plant response rating [10]: 20
Galium plant response rating (0 to 100 scale) [11]: 90
Galium plant response rating [11]: 90
Kochia plant response rating (0 to 100 scale) (kochia (Kochia scoparia) [12]): 80
Kochia plant response rating (kochia (Kochia scoparia) [12]): 60
Pigweed plant response rating (0 to 100 scale) [13]: 90
Pigweed plant response rating [13]: 80
Ragweed plant response rating (0 to 100 scale) [14]: 100
Ragweed plant response rating [14]: 90
Wheat plant response rating (0 to 100 scale) [15]: 50
Wheat plant response rating [15]: 0
Plant response rating, Barnyardgrass (0 to 100 scale, 0 is no effect, 100 is complete control) [16]: 0
Plant response rating, Ducksalad (0 to 100 scale, 0 is no effect, 100 is complete control) [17]: 0
Plant response rating, Rice (0 to 100 scale, 0 is no effect, 100 is complete control) (rice (Oryza sativa)): 0
Plant response rating, Sedge, Umbrella (0 to 100 scale, 0 is no effect, 100 is complete control) [18]: 0
